Test results taken from publication PMC10901892 (Scientific Reports, 2024).
pEC50: −log10 of the molar value. Entries after “also recorded” stand apart in the source; their conditions may differ.

How the values were obtained:
[1] = system: isolated mouse liver mitochondria; format: biochemical; conditions: for pEC50: read-out: EC50 of uncoupling activity
[2] = target: T1, mitochondrial electron transport chain (complex II) (Mus musculus, UniProt Q8K2B3+Q9CQA3+Q9CXV1+Q9CZB0); format: biochemical
T1 construct: Mouse liver mitochondria were isolated by homogenization and differential centrifugation; from tissue; host or cells: liver of male C57BL/6JINV (Jax) mice; isolated mitochondria, intact or disrupted by a freeze-thaw cycle

[3] = in vivo, 5 mg/kg
rats = conditions: cited from earlier work
[4] = In vitro metabolic stability with rat liver microsomes
[5] = Stability in aqueous 100 mM KPO4 buffer with or without GSH
mice = assay: NMY1009 in vivo toxicity study; conditions: i.p. daily, 1 to 100 mg/kg, seven days
Protocol: (§1) Figure 2 Determination of NMY1009 toxicity and plasma and tissue concentrations. (A) 7 treatment groups and 1 vehicle group (four mice per each group) were subjected to 7 daily administrations of the drug i.p. and well-being checks were carried out at 6 and 24 h after each treatment. No deaths or adverse reactions at any of the used NMY1009 doses were observed. (B, C) Tissue and plasma kinetics of NMY1009. Mice were injected with 5 mg/kg NMY1009 i.p. NMY1009 concentrations were measured by LC/MS.
7 treatment groups and 1 vehicle group (four mice per each group) were subjected to 7 daily administrations of the drug i.p. NMY1009 was dissolved in 100% DMSO and the injection volume was 30 μl. Well-being checks were carried out at 6 and 24 h after each treatment. The in vivo toxicity study was carried out by Altogen Labs (Austin, TX).

[6] = NMY1009 plasma and tissue concentrations over time by LC/MS; format: in vivo; conditions: mice, 5 mg/kg i.p.
Protocol: as §1
To characterize the in vivo pharmacokinetics properties of NMY1009, we measured plasma and tissue concentrations over time after an i.p. injection of 5 mg/kg NMY1009. […] The kinetics of the tissue drug concentrations were similar compared to plasma. The observed decline in the adipose tissue concentrations may be due to drug metabolism or renal excretion. The latter possibility appears less likely as the drug concentration in the kidney was very low. […] However, the adipose tissue drug concentrations decreased over time with a half-life of approximately 3 h.
50 mg of tissue were extracted into 1000 μl of acetonitrile. The entire supernatant was dried and reconstituted into 200 μl of 1:1 acetonitrile/water.

mice on high fat diet = conditions: mouse, in vivo, ip, 3 mg/kg
[7] = aqueous buffer, ESI mass spectrometry
[8] = aqueous solution without GSH, 37 °C

T1 sequence (Q8K2B3 43-664): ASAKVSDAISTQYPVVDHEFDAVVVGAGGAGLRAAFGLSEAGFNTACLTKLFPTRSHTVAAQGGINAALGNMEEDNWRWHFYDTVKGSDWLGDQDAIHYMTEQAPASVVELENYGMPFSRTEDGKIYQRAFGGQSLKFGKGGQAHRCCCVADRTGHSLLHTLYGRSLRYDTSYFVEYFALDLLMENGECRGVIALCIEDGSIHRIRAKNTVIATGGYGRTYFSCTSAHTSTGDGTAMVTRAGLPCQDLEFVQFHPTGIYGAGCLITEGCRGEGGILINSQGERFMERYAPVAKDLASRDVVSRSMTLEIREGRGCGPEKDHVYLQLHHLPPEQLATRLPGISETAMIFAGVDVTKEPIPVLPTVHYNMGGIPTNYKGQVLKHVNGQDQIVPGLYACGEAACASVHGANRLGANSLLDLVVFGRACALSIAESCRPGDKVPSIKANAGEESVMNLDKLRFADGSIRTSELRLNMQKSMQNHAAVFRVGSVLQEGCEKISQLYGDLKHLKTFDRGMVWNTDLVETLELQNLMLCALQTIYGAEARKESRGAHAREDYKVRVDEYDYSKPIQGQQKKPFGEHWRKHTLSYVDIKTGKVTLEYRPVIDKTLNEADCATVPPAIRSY
T1 sequence (Q9CQA3 31-282): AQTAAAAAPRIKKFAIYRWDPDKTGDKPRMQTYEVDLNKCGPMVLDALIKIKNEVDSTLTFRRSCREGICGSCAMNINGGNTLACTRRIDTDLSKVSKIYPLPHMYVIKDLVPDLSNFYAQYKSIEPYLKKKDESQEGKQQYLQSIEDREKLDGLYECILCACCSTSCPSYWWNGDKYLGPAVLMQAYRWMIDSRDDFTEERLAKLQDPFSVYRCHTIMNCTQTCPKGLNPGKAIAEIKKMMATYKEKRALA
T1 sequence (Q9CZB0 30-169): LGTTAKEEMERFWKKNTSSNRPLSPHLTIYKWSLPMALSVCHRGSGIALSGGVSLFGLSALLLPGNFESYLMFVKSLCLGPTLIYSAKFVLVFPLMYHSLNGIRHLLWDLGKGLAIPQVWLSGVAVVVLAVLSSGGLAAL
T1 sequence (Q9CXV1 57-159): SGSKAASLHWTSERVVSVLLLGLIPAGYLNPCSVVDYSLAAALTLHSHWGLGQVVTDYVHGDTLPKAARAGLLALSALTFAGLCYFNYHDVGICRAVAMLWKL

CCCCCCCCOc1cc([N+](=O)[O-])c(O)c([N+](=O)[O-])c1 [2,6-dinitro-4-(octyloxy)phenol]
EC50, fold stimulation of oxygen consumption [1]: 3.7 µM
effect on mitochondrial oxygen consumption at very high concentrations [2]: inhibited mitochondrial oxygen consumption at very high concentrations
effect on oxygen consumption with NADH as substrate [2]: minimal effect
effect on succinate-dependent oxygen consumption after disruption of the inner membrane [2]: inhibited succinate-dependent oxygen consumption
plasma concentration kinetics (in words) ([3]; C57BL/6, mouse): decreased rapidly with much faster kinetics compared to 2,6-dinitrophenol
drug tissue concentration, heart ([3]; mouse): BLQ
drug tissue concentration, kidney ([3]; mouse): BLQ
drug tissue concentration, liver ([3]; mouse): BLQ
health of animals during the study ([3]; mouse): healthy throughout the study duration
tissue concentrations (in words) ([3]; mouse, ip): very low

N#CC(C#N)=NNc1ccc(OC(F)(F)F)cc1 [FCCP, carbonyl cyanide p-trifluoromethoxy-phenylhydrazone, reference compound]
doses causing adverse effects (rats): ≥ 5 mg/kg
doses causing death (rats): higher than 20 mg/kg
stability upon incubation with rat liver microsomes (in words) ([4]; presence and absence of NADPH, up to 45 min, 37 °C): stable
drug turnover in aqueous solution in the absence or presence of 0.2 mM GSH (in words) ([5]; 24 h, 37 °C, 100 mM KPO4): not metabolized significantly
incubation time at which the O-dealkylated metabolite (loss of the trifluoromethyl group) was observed [5, 7]: 24 h

CCCCCCCCCCCCOc1ccc(NN=C(C#N)C#N)cc1 [C12-CCP]
uncoupling activity (in words) [1]: no activity; also recorded: low uncoupling activity

CCCCCCCCOc1ccc(NN=C(C#N)C#N)cc1 [NMY1009, (4-octyloxy-phenyl)carbonhydrazonoyl dicyanide]
deaths or adverse reactions (toxicity) (mice): No deaths or adverse reactions were observed; also recorded: no toxicity
pEC50 [1]: ~7.00
half-life at 1 µM ([4]; rat, microsomes, pH 7.4): ~30 min
tissue distribution (in words) [6]: highest drug tissue concentrations were found in the different types of adipose tissue
half-life ([6]; mouse, adipose tissue, ip, read-out: half-life of adipose tissue drug concentrations (converted)): ~180 min
Tmax ([6]; mouse, plasma, ip, read-out: time of peak plasma concentration (converted)): 30 min
Glucose Tolerance Test response vs vehicle (mice on high fat diet): no altered Glucose Tolerance Test response
blood glucose concentrations and other blood markers of metabolic health vs vehicle (mice on high fat diet): no significant differences in blood glucose concentrations and other blood markers of metabolic health
body composition (body weight and fat mass gains) vs vehicle (mice on high fat diet): no changes in the body composition
respiratory exchange ratio and energy expenditure vs vehicle (mice on high fat diet): no differences the respiratory exchange ratio and energy expenditure
serum adiponectin concentrations vs vehicle (mice on high fat diet): decrease in serum adiponectin concentrations
incubation time at which the dealkylated metabolite (loss of the octyl group) was observed [5, 7]: 30 min
time after which one third of the drug was turned over [5, 8]: approximately 1 h
time after which two thirds of the drug were turned over [5, 8]: 6 h
drug remaining at the end of the 24 h incubation ([5]; aqueous solution without GSH, 37 °C, 10 μM): about 18%

COc1ccc(NN=C(C#N)C#N)cc1 [C1-CCP]
uncoupling activity (in words) [1]: lower uncoupling activity compared to C4-CCP and C8-CCP

CCCCOc1ccc(NN=C(C#N)C#N)cc1 [C4-CCP]
pEC50 [1]: ~7.00

O=[N+]([O-])c1ccc(O)c([N+](=O)[O-])c1 [2,4-dinitrophenol, reference compound]
EC50, fold stimulation of oxygen consumption [1]: 9.6 µM
inhibitory effect on mitochondrial electron transport chain activity [2]: no inhibitory effect
